# Reference: patent publication US20230158042A1, “COMBINATION CANCER THERAPY WITH PENTAAZA MACROCYCLIC RING COMPLEX AND HORMONE THERAPY AGENT” (Galera Labs, LLC, priority 2020, published 2023)
# Key:
# MCF7-HTR cells [1] = assay: Clonogenic cell survival, hydroxy-Tam-resistant MCF7 cells with GC4419; format: cell-based, human; details: 5 µM GC4419 for 5 days; 1 µM hydroxy-Tam
# Method: (§1) Clonogenic cell survival assay. For the clonogenic survival analysis, exponentially growing cells were replated using appropriate dilutions, and clonogenic survival was evaluated after 14 days in regular growth medium. Cells were stained with crystal violet, and colonies of >50 cells were counted and utilized to calculate clonogenic survival^46.
# To test parameters indicative of oxidative stress, a clonogenic assay with hydroxy-Tam and MnPAM dismutase mimetic treatments was performed. Cells were plated at a density of 50,000 cells per 60-mm dish and treated with 1 µM hydroxy-Tam (Sigma) and 5 µM GC4419 (Galera Therapeutics) for a total of 120 h. This protocol was repeated with a fresh medium change every 24 h for 5 days. On day 6, the cells were trypsinized, counted, and replated in control medium using appropriate dilutions, and clonogenic survival was evaluated.
# MCF7-HTR cells [2] = assay: Ki-67 staining in MCF7-HTR cells; format: cell-based, human; details: 5 µM GC4419 for 5 days
# Description: With respect to FIG. 16a, the data from FIG. 7i, where MCF7-HTR cells were stained for Ki-67, as well as DAPI, were counted with ImageJ and quantified for average Ki-67 intensity as shown in the bar graph. With respect to FIGS. 16b and 16c, T47D and T47D-HTR cells were stained for Ki-67 as well as DAPI, and particles in the nucleus were counted with ImageJ and quantified for average Ki-67 intensity as shown in the bar graph. In FIGS. 16d and 16e, MCF7-HTR cells, and in FIGS. 16f and 16g, T47D-HTR cells, were treated with 5 µM GC4419 and/or 1 µM 4-hydroxy-Tam for 5 days, and then stained for Ki-67 as well as DAPI. Quantifications of average Ki-67 intensity are shown in the bar graphs. All experiments were done in triplicate. Error bars represent ± 1 SEM. ***p < 0.001. Representative images are shown.
# Cells seeded on glass coverslips were fixed in 4% paraformaldehyde and then blocked with 1% BSA and 10% normal goat serum in 1x PBS. Cells were incubated with anti-Ki-67 (c-bioscience) antibody in 1x PBS followed by incubation with goat anti-rabbit IgG conjugated with Alexa Fluor 647 (Invitrogen) in 1x PBS with 5% goat serum. Cells were washed in 1x PBS, mounted, and imaged with a fluorescence microscope. Fluorescence images were captured using a laser scanning confocal microscope (Nikon A1 R). The paired images in all the figures were collected at the same gain and offset settings. […]
# MCF7-MnSOD^K68Q cells [3] = assay: Ki-67 staining in MCF7-MnSOD^K68Q cells; format: cell-based, human; details: 5 µM GC4419 for 5 days
# Method: MCF7-MnSOD^K68Q cells (in FIGS. 17a and 17b) and T47D-MnSOD^K68Q cells (in FIGS. 17c and 17d) were treated with 5 µM GC4419 and/or 1 µM 4-hydroxy-Tam for 5 days, and then stained for Ki-67 as well as DAPI. Quantifications of average Ki-67 intensity are shown in the bar graphs. In FIG. 17e, MCF7 and MCF7-HTR cells were implanted into both hind limbs of nude mice and tumor volumes were measured every 3 days for 6 weeks and the number of tumors that successfully implanted versus the total number of mice infected with MCF7 and MCF7-HTR as well as the average tumor weight and tumor size are shown. Representative images are shown. All experiments were done in triplicate. Error bars represent ± 1 SEM. ***p < 0.001.
# Cells seeded on glass coverslips were fixed in 4% paraformaldehyde and then blocked with 1% BSA and 10% normal goat serum in 1x PBS. Cells were incubated with anti-Ki-67 (c-bioscience) antibody in 1x PBS followed by incubation with goat anti-rabbit IgG conjugated with Alexa Fluor 647 (Invitrogen) in 1x PBS with 5% goat serum. Cells were washed in 1x PBS, mounted, and imaged with a fluorescence microscope. Fluorescence images were captured using a laser scanning confocal microscope (Nikon A1 R). The paired images in all the figures were collected at the same gain and offset settings. Post-collection processing was applied uniformly to all paired images.
# LNCaP-ENZR cells = assay: Clonogenic cell survival in LNCaP-ENZR cells; format: cell-based; details: GC4419 20 µM for 5 days, in the presence of ENZ
# Method: FIGS. 21a-21b are a chart and graph showing that pharmacologically mimicking the activity of deacetylated lysine 68 MnSOD with a manganese pentaazamacrocyclic dismutase mimetic both inhibited the growth of LNCaP-ENZR tumors and reversed the enzalutamide resistance in LNCaP-ENZR / LNCaP—MnSOD^K68Q cells and tumors. In FIG. 21a, clonogenic cell survival experiments were performed in LNCaP-ENZR (left two bars) and LNCaP—MnSOD^K68Q (right two bars) treated with ENZ, with or without GC4419 (20 µM) for 5 days. […] Tumor volumes were measured three times a week for 46 days. For each group n=10. Error bars ± 1 SEM. All experiments done in triplicate. **p < 0.01.
# MCF7-MnSOD^K68Q cells [4] = assay: Clonogenic cell survival in MCF7-MnSOD^K68Q cells; format: cell-based, human; details: GC4419 10 µM alone
# Method: FIGS. 25a-25b show clonogenic cell survival studies in MCF7-MnSOD^K68Q cells exposed to either: Fulv at 100 nM (in FIG. 25a); or Palb at 0.5 µM (in FIG. 25b) using standard methods. […] Error bars are ± 1 SEM. Experiments in triplicate. *** p < 0.001.
# as §1
# MCF7-Cispl-R cells [5] = assay: Cell ROS levels in cisplatin-resistant MCF7 cells; format: cell-based, human; details: data not shown
# Method: (§2) FIGS. 27a-27c are an image and graphs showing that MnSOD—AcK68/ROS/HIF2α dysregulation directs PanR (multi-therapy resistance to cancer therapeutics). […] In FIG. 27b, ROS was measured in MCF7-Cispl-R cells, compared with MCF7 cells, using an Amplex Red assay. In FIG. 27c, MCF7 and MCF7-MnSOD^K68Q cells were measured by clonogenic cell survival assays, without and with cisplatin exposure, and infected with scrambled (C) or HIF2α shRNA. All experiments were done in triplicate. Error bars are ± 1 SEM. * p < 0.05.
# MCF7-Cispl-R cells [6] = assay: Cisplatin resistance phenotype of MCF7-Cispl-R cells (clonogenic cell survival); format: cell-based, human; details: treated with GC4419
# Method: as §2
# To evaluate clonogenic cell survival by testing cell growth at low density, 500 exponentially growing cells were plated in triplicate in 6-well plates using serial dilution, and the growth of the cells was examined throughout 14 days in regular growth medium. Cells were fixed with 70% ethanol for 5 minutes and then stained with 0.5% crystal violet (in 25% methanol) for 20 minutes. Photos of stained plates were taken, and colonies of more than 50 cells were counted and used to calculate clonogenic survival.
# [7] = test system: Tam resistant as well as loss of Sirt3 tumor cell lines; assay: In vitro Tam resistance in Tam resistant and loss of Sirt3 tumor cell lines; format: cell-based; details: data not shown
# rat model = details: cited from earlier work
compound,measurement,setting,value
[Cl][Mn][Cl].c1cc2nc(c1)CN[C@H]1CCCC[C@@H]1NCCN[C@H]1CCCC[C@@H]1NC2 [GC4419],hydroxy-Tam resistance (clonogenic cell survival),MCF7-HTR cells [1],became sensitive to hydroxy-Tam
same,Ki-67 IHC staining,MCF7-HTR cells [2],decreased Ki-67 IHC staining
same,Ki-67 IHC staining,MCF7-MnSOD^K68Q cells [3],reversed the increase in Ki-67 IHC staining
same,tumor cell survival (clonogenic),LNCaP-ENZR cells,significant decrease in tumor cell survival in the presence of ENZ
same,cell growth (clonogenic),MCF7-MnSOD^K68Q cells [4],inhibited the growth of MnSOD^K68Q breast cancer cells
same,cell ROS levels,MCF7-Cispl-R cells [5],decreased cell ROS levels
same,Cispl-R phenotype,MCF7-Cispl-R cells [6],converted the Cispl-R cells to a sensitive phenotype
same,Tam resistance,[7],reverses Tam resistance
same,VEGFr inhibitor-induced pulmonary disease,rat model,attenuate VEGFr inhibitor-induced pulmonary disease
